Data published in publication PMC5218480 (PLoS ONE, 2017).

System: MV-4-11 cells
Test: Gene expression microarray analysis (Affymetrix PrimeView) and GSEA
Type: cell-based, human
Parameters: RFU PODN (11730768_x_at) / Fold change /veh PODN (11730768_x_at) / RFU LINC00158 (11744669_a_at) / Fold change /veh LINC00158 (11744669_a_at) / RFU DUSP10 (11751237_a_at) / Fold change /veh DUSP10 (11751237_a_at) / RFU ID3 (11757404_x_at) / Fold change /veh ID3 (11757404_x_at) / RFU PLEKHG5 (11737974_s_at) / Fold change /veh PLEKHG5 (11737974_s_at) / RFU LRRC4B (11730491_at) / Fold change /veh LRRC4B (11730491_at) / RFU GIMAP4 (11747438_a_at) / Fold change /veh GIMAP4 (11747438_a_at) / RFU KRT8 (11758183_x_at) / Fold change /veh KRT8 (11758183_x_at) / RFU CNN1 (11734310_a_at) / Fold change /veh CNN1 (11734310_a_at) / RFU VPS37D (11726825_at) / Fold change /veh VPS37D (11726825_at) / RFU C10orf10 (11716522_x_at) / Fold change /veh C10orf10 (11716522_x_at) / RFU KIR2DL2 /// KIR2DL4 /// KIR2DL5A /// KIR2DL5B /// KIR2DS1 /// KIR2DS2 /// KIR2DS3 /// KIR2DS4 /// KIR3DL3 /// KIR3DL3 /// KIR3DS1 (11738374_at) / Fold change /veh KIR2DL2 /// KIR2DL4 /// KIR2DL5A /// KIR2DL5B /// KIR2DS1 /// KIR2DS2 /// KIR2DS3 /// KIR2DS4 /// KIR3DL3 /// KIR3DL3 /// KIR3DS1 (11738374_at) / RFU C1QL1 (11718748_at) / Fold change /veh C1QL1 (11718748_at) / RFU TMPRSS4 (11747572_a_at) / Fold change /veh TMPRSS4 (11747572_a_at) / RFU HAMP (11756126_x_at) / Fold change /veh HAMP (11756126_x_at) / RFU RNFT2 (11725882_a_at) / Fold change /veh RNFT2 (11725882_a_at) / RFU NR4A2 (11747474_a_at) / Fold change /veh NR4A2 (11747474_a_at) / RFU ABCC12 (11746883_a_at) / Fold change /veh ABCC12 (11746883_a_at) / RFU TMEM136 (11760407_x_at) / Fold change /veh TMEM136 (11760407_x_at) / RFU CLDN22 /// WWC2 (11732394_at) / Fold change /veh CLDN22 /// WWC2 (11732394_at) / RFU HLA-DPB1 (11760878_x_at) / Fold change /veh HLA-DPB1 (11760878_x_at) / RFU SPINT1 (11716480_a_at) / Fold change /veh SPINT1 (11716480_a_at) / RFU GAP43 (11754022_s_at) / Fold change /veh GAP43 (11754022_s_at) / RFU A4GNT (11735810_at) / Fold change /veh A4GNT (11735810_at) / RFU PRB3 (11715151_x_at) / Fold change /veh PRB3 (11715151_x_at) / RFU TUBB4B (11761932_at) / Fold change /veh TUBB4B (11761932_at) / RFU CAPN14 (11732068_a_at) / Fold change /veh CAPN14 (11732068_a_at) / RFU TMCC2 (11721928_a_at) / Fold change /veh TMCC2 (11721928_a_at) / RFU IRGQ (11745062_a_at) / Fold change /veh IRGQ (11745062_a_at) / RFU FAM174B (11720279_a_at) / Fold change /veh FAM174B (11720279_a_at) / RFU TMPRSS4 (11748680_a_at) / Fold change /veh TMPRSS4 (11748680_a_at) / RFU FAM212B (11763350_a_at) / Fold change /veh FAM212B (11763350_a_at) / RFU PLEKHG5 (11743358_a_at) / Fold change /veh PLEKHG5 (11743358_a_at) / RFU ZSCAN30 (11745921_a_at) / Fold change /veh ZSCAN30 (11745921_a_at) / RFU CMKLR1 (11741424_a_at) / Fold change /veh CMKLR1 (11741424_a_at) / RFU LOC101060620 /// MAPK8IP1 (11723275_at) / Fold change /veh LOC101060620 /// MAPK8IP1 (11723275_at) / RFU SPTSSB (11747773_x_at) / Fold change /veh SPTSSB (11747773_x_at) / RFU PRSS12 (11739890_at) / Fold change /veh PRSS12 (11739890_at) / RFU BIN1 (11741810_x_at) / Fold change /veh BIN1 (11741810_x_at) / RFU WNT11 (11732464_a_at) / Fold change /veh WNT11 (11732464_a_at) / RFU C10orf10 (11716521_a_at) / Fold change /veh C10orf10 (11716521_a_at) / RFU C5orf56 (11738089_at) / Fold change /veh C5orf56 (11738089_at) / RFU CYB561 (11721691_x_at) / Fold change /veh CYB561 (11721691_x_at) / RFU ANKRD19P (11752326_a_at) / Fold change /veh ANKRD19P (11752326_a_at) / RFU OR2T12 /// OR2T33 /// OR2T8 (11738714_s_at) / Fold change /veh OR2T12 /// OR2T33 /// OR2T8 (11738714_s_at) / RFU VCAN (11748164_a_at) / Fold change /veh VCAN (11748164_a_at) / RFU JSRP1 (11732532_at) / Fold change /veh JSRP1 (11732532_at) / RFU KRTAP10-11 (11738290_x_at) / Fold change /veh KRTAP10-11 (11738290_x_at) / RFU MYO3A (11730013_a_at) / Fold change /veh MYO3A (11730013_a_at) / RFU EBF3 (11725865_a_at) / Fold change /veh EBF3 (11725865_a_at) / RFU CAMK2N1 (11719241_x_at) / Fold change /veh CAMK2N1 (11719241_x_at) / RFU C5orf56 (11738088_a_at) / Fold change /veh C5orf56 (11738088_a_at) / RFU OLFML3 (11715873_a_at) / Fold change /veh OLFML3 (11715873_a_at) / RFU LOC100653217 /// NTM (11731650_a_at) / Fold change /veh LOC100653217 /// NTM (11731650_a_at) / RFU MAPK11 (11762145_a_at) / Fold change /veh MAPK11 (11762145_a_at) / RFU FIZ1 (11724087_x_at) / Fold change /veh FIZ1 (11724087_x_at) / RFU OASL (11726364_x_at) / Fold change /veh OASL (11726364_x_at) / RFU SOX15 (11748057_x_at) / Fold change /veh SOX15 (11748057_x_at) / RFU CD79A (11719716_a_at) / Fold change /veh CD79A (11719716_a_at) / RFU HIST1H1D (11736915_at) / Fold change /veh HIST1H1D (11736915_at) / RFU CASKIN2 (11723855_a_at) / Fold change /veh CASKIN2 (11723855_a_at) / RFU LOC730098 (11760151_x_at) / Fold change /veh LOC730098 (11760151_x_at) / RFU OR4N2 (11742367_at) / Fold change /veh OR4N2 (11742367_at) / RFU PRRT2 (11749266_a_at) / Fold change /veh PRRT2 (11749266_a_at) / RFU SNX32 (11753110_a_at) / Fold change /veh SNX32 (11753110_a_at) / RFU CDHR5 (11726645_a_at) / Fold change /veh CDHR5 (11726645_a_at) / RFU RCAN1 (11760418_a_at) / Fold change /veh RCAN1 (11760418_a_at) / RFU FAM167A (11723789_a_at) / Fold change /veh FAM167A (11723789_a_at) / RFU FAM26E (11764081_at) / Fold change /veh FAM26E (11764081_at) / RFU ISYNA1 (11749810_s_at) / Fold change /veh ISYNA1 (11749810_s_at) / RFU ACY1 (11761880_at) / Fold change /veh ACY1 (11761880_at) / RFU 11764098_at / Fold change /veh 11764098_at / RFU SAMD14 (11745864_x_at) / Fold change /veh SAMD14 (11745864_x_at) / RFU NPB (11741838_a_at) / Fold change /veh NPB (11741838_a_at) / RFU TMPRSS6 (11731388_a_at) / Fold change /veh TMPRSS6 (11731388_a_at) / RFU KRTAP10-2 (11738614_at) / Fold change /veh KRTAP10-2 (11738614_at) / RFU ARHGAP8 /// PRR5-ARHGAP8 (11727945_x_at) / Fold change /veh ARHGAP8 /// PRR5-ARHGAP8 (11727945_x_at) / RFU KRTAP5-7 /// NADSYN1 (11734609_at) / Fold change /veh KRTAP5-7 /// NADSYN1 (11734609_at) / RFU RASL12 (11751679_a_at) / Fold change /veh RASL12 (11751679_a_at) / RFU CDKN2B (11736163_a_at) / Fold change /veh CDKN2B (11736163_a_at) / RFU PRF1 (11729649_at) / Fold change /veh PRF1 (11729649_at) / RFU, ZNF638 /// ZNF638-IT1 / Fold change vs veh, ZNF638 /// ZNF638-IT1 / RFU, PANK3 / Fold change vs veh, PANK3 / RFU, SH3YL1 / Fold change vs veh, SH3YL1 / RFU, ZEB2 / Fold change vs veh, ZEB2 / RFU, NRIP1 / Fold change vs veh, NRIP1 / RFU, PTTG1IP / Fold change vs veh, PTTG1IP / RFU, CAPN2 / Fold change vs veh, CAPN2 / RFU, MED14 / Fold change vs veh, MED14 / RFU, SNORA58 / Fold change vs veh, SNORA58 / RFU, C1orf63 / Fold change vs veh, C1orf63 / RFU, LRRFIP1 / Fold change vs veh, LRRFIP1 / RFU, NDUFAF7 / Fold change vs veh, NDUFAF7 / RFU, SLC12A2 / Fold change vs veh, SLC12A2 / RFU, IBTK / Fold change vs veh, IBTK / RFU, ESF1 / Fold change vs veh, ESF1 / Fold change vs veh, TMEM50B / RFU, TAOK1 / Fold change vs veh, TAOK1 / RFU, ACBD3 / Fold change vs veh, ACBD3 / RFU, TMA16 / Fold change vs veh, TMA16 / RFU, RWDD3 / Fold change vs veh, RWDD3 / RFU, BCAT1 / Fold change vs veh, BCAT1 / RFU, EDEM3 / Fold change vs veh, EDEM3 / RFU, TMEM33 / Fold change vs veh, TMEM33 / RFU, WDR75 / Fold change vs veh, WDR75 / RFU, AHCTF1 / Fold change vs veh, AHCTF1 / RFU, TFRC / Fold change vs veh, TFRC / RFU, ZDHHC17 / Fold change vs veh, ZDHHC17 / RFU, NOM1 / Fold change vs veh, NOM1 / RFU, ARL8B / Fold change vs veh, ARL8B / RFU, ZBTB11 / Fold change vs veh, ZBTB11 / RFU, TAMM41 / Fold change vs veh, TAMM41 / RFU, KIAA1704 /// LOC100996395 / Fold change vs veh, KIAA1704 /// LOC100996395 / RFU, ING1 / Fold change vs veh, ING1 / RFU, TRMT61B / Fold change vs veh, TRMT61B / RFU, FUBP3 / Fold change vs veh, FUBP3 / RFU, TP53 / Fold change vs veh, TP53 / RFU, TNKS2 / Fold change vs veh, TNKS2 / RFU, ZFP14 / Fold change vs veh, ZFP14 / RFU, ACTR2 / Fold change vs veh, ACTR2 / RFU, PPP3R1 / Fold change vs veh, PPP3R1 / RFU, PIK3R1 / Fold change vs veh, PIK3R1 / RFU, HNRNPA1 / Fold change vs veh, HNRNPA1 / RFU, RNF170 / Fold change vs veh, RNF170 / RFU, ZNF28 / Fold change vs veh, ZNF28 / RFU, RNGTT / Fold change vs veh, RNGTT / RFU, OGT / Fold change vs veh, OGT / RFU, BRD1 / Fold change vs veh, BRD1 / RFU, MARS / Fold change vs veh, MARS / RFU, ZNF655 / Fold change vs veh, ZNF655 / RFU, FAHD1 / Fold change vs veh, FAHD1 / RFU, BDP1 / Fold change vs veh, BDP1 / RFU, LRRCC1 / Fold change vs veh, LRRCC1 / RFU, ARID1A / Fold change vs veh, ARID1A / RFU, ZNF146 / Fold change vs veh, ZNF146 / RFU, ZNF330 / Fold change vs veh, ZNF330 / RFU, GPN3 / Fold change vs veh, GPN3 / RFU, C9orf123 / Fold change vs veh, C9orf123 / RFU, N4BP2L2 / Fold change vs veh, N4BP2L2 / RFU, ARFIP1 / Fold change vs veh, ARFIP1 / RFU, FAM179B / Fold change vs veh, FAM179B / RFU, BCL10 / Fold change vs veh, BCL10 / RFU, UHRF1BP1L / Fold change vs veh, UHRF1BP1L / RFU, BET1 / Fold change vs veh, BET1 / RFU, CNOT2 / Fold change vs veh, CNOT2 / RFU, ZNF268 / Fold change vs veh, ZNF268 / Fold change vs veh, ZNF507 / RFU, DGCR2 / Fold change vs veh, DGCR2 / RFU, WDSUB1 / Fold change vs veh, WDSUB1 / Fold change vs veh, HSP90B1 /// MIR3652 / RFU, ADSS / Fold change vs veh, ADSS / RFU, GK / Fold change vs veh, GK / RFU, ZNF148 / Fold change vs veh, ZNF148 / RFU, TAF9 / Fold change vs veh, TAF9 / RFU, SLC1A5 / Fold change vs veh, SLC1A5 / RFU, SLMO2 / Fold change vs veh, SLMO2 / RFU, ABCC4 / Fold change vs veh, ABCC4 / RFU, LOC101060439 /// RAP1B / Fold change vs veh, LOC101060439 /// RAP1B / RFU, RFX7 / Fold change vs veh, RFX7 / RFU, GTPBP10 / Fold change vs veh, GTPBP10 / RFU, CNEP1R1 / Fold change vs veh, CNEP1R1 / RFU, BIVM-ERCC5 /// ERCC5 / Fold change vs veh, BIVM-ERCC5 /// ERCC5 / RFU, ILF3 / Fold change vs veh, ILF3 / RFU 11762660_at / Fold change /veh 11762660_at / RFU VCAN (11757783_s_at) / Fold change /veh VCAN (11757783_s_at) / RFU DDX43 (11728927_at) / Fold change /veh DDX43 (11728927_at) / RFU KRT8 (11758188_x_at) / Fold change /veh KRT8 (11758188_x_at) / RFU NKD1 (11759106_at) / Fold change /veh NKD1 (11759106_at) / RFU SRD5A1 (11742802_a_at) / Fold change /veh SRD5A1 (11742802_a_at) / RFU TPSAB1 /// TPSB2 (11721975_s_at) / Fold change /veh TPSAB1 /// TPSB2 (11721975_s_at) / RFU GSTM3 (11746129_a_at) / Fold change /veh GSTM3 (11746129_a_at) / RFU IL23R (11737362_x_at) / Fold change /veh IL23R (11737362_x_at) / RFU TMEM51 (11727254_a_at) / Fold change /veh TMEM51 (11727254_a_at) / RFU PIWIL2 (11732686_x_at) / Fold change /veh PIWIL2 (11732686_x_at) / RFU ORM1 (11744905_x_at) / Fold change /veh ORM1 (11744905_x_at) / RFU CCDC152 (11743942_at) / Fold change /veh CCDC152 (11743942_at) / RFU ECM1 (11717891_a_at) / Fold change /veh ECM1 (11717891_a_at) / RFU IL23R (11748794_a_at) / Fold change /veh IL23R (11748794_a_at) / RFU TNFAIP8L3 (11732012_x_at) / Fold change /veh TNFAIP8L3 (11732012_x_at) / RFU MBOAT4 (11741988_at) / Fold change /veh MBOAT4 (11741988_at) / RFU 11764193_at / Fold change /veh 11764193_at / RFU TMEM53 (11763286_at) / Fold change /veh TMEM53 (11763286_at) / RFU MAGEB2 (11727129_at) / Fold change /veh MAGEB2 (11727129_at) / RFU TMEM200A (11744735_a_at) / Fold change /veh TMEM200A (11744735_a_at) / RFU CCDC152 (11751479_a_at) / Fold change /veh CCDC152 (11751479_a_at) / RFU FAM211A (11726209_a_at) / Fold change /veh FAM211A (11726209_a_at) / RFU RGS16 (11746705_a_at) / Fold change /veh RGS16 (11746705_a_at) / RFU VCAN (11755009_s_at) / Fold change /veh VCAN (11755009_s_at) / RFU RHOB (11743442_s_at) / Fold change /veh RHOB (11743442_s_at) / RFU RGS16 (11720943_a_at) / Fold change /veh RGS16 (11720943_a_at) / RFU RGS16 (11720944_at) / Fold change /veh RGS16 (11720944_at) / RFU, VPS4B / Fold change vs veh, VPS4B / RFU, CREB1 / Fold change vs veh, CREB1 / RFU, DNAJC13 / Fold change vs veh, DNAJC13 / RFU, GNAQ / Fold change vs veh, GNAQ / RFU, CDK5R1 / Fold change vs veh, CDK5R1 / RFU, ZRANB3 / Fold change vs veh, ZRANB3 / RFU, CUL4A / Fold change vs veh, CUL4A / RFU, CCNY / Fold change vs veh, CCNY / RFU, UFL1 / Fold change vs veh, UFL1 / RFU, COG3 / Fold change vs veh, COG3 / RFU, DIAPH2 / Fold change vs veh, DIAPH2 / RFU, SKA2 / Fold change vs veh, SKA2 / RFU, AFF3 / Fold change vs veh, AFF3 / RFU, LMF1 / Fold change vs veh, LMF1 / RFU, IPO11 / Fold change vs veh, IPO11 / RFU, DFFB / Fold change vs veh, DFFB / RFU, FOXP1 / Fold change vs veh, FOXP1 / RFU, CARD8 / Fold change vs veh, CARD8 / RFU, STRN3 / Fold change vs veh, STRN3 / RFU, ADK / Fold change vs veh, ADK / RFU, RASSF2 / Fold change vs veh, RASSF2 / RFU, WIPF1 / Fold change vs veh, WIPF1 / RFU, LARP1B / Fold change vs veh, LARP1B / RFU, RASA1 / Fold change vs veh, RASA1 / RFU, RB1 / Fold change vs veh, RB1 / RFU, PPFIA1 / Fold change vs veh, PPFIA1 / RFU, MAT2A / Fold change vs veh, MAT2A / RFU, CCT5 / Fold change vs veh, CCT5 / RFU, WDR92 / Fold change vs veh, WDR92 / RFU, CUX1 / Fold change vs veh, CUX1 / RFU, TTC7A / Fold change vs veh, TTC7A / RFU, TMEM135 / Fold change vs veh, TMEM135 / RFU, DEPTOR / Fold change vs veh, DEPTOR / RFU, CPM / Fold change vs veh, CPM / RFU, DNAJB6 / Fold change vs veh, DNAJB6 / RFU, CACNA2D3 / Fold change vs veh, CACNA2D3 / RFU, DTX4 / Fold change vs veh, DTX4 / RFU, TFCP2 / Fold change vs veh, TFCP2 / RFU, GMCL1 /// GMCL1P1 / Fold change vs veh, GMCL1 /// GMCL1P1 / RFU, AEBP2 / Fold change vs veh, AEBP2 / RFU, SNHG1 /// SNORD22 /// SNORD25 /// SNORD26 /// SNORD27 /// SNORD28 /// SNORD29 /// SNORD31 / Fold change vs veh, SNHG1 /// SNORD22 /// SNORD25 /// SNORD26 /// SNORD27 /// SNORD28 /// SNORD29 /// SNORD31 / Fold change (Aza/veh), C12orf56 (ProbeSet 11735607_a_at) / Fold change (ACY-1035/veh), C12orf56 (ProbeSet 11735607_a_at) / Fold change (Aza/veh), FGFR1OP (ProbeSet 11751329_s_at) / Fold change (ACY-1035/veh), FGFR1OP (ProbeSet 11751329_s_at) / Fold change (Aza/veh), VPS36 (ProbeSet 11739960_a_at) / Fold change (ACY-1035/veh), VPS36 (ProbeSet 11739960_a_at) / RFU SYPL1 (11715823_x_at) / Fold change /veh SYPL1 (11715823_x_at) / RFU IGFBP7 (11715501_s_at) / Fold change /veh IGFBP7 (11715501_s_at) / RFU REEP3 (11722064_at) / Fold change /veh REEP3 (11722064_at) / RFU IGLL1 (11728026_x_at) / Fold change /veh IGLL1 (11728026_x_at): dose or concentration left out as unconfirmed
Conditions: MV-4-11 cells, 48 hours

Nc1ccc(-c2cccs2)cc1NC(=O)c1ccc2c(c1)cc(C1CC1)n2CCN1CCOCC1 [ACY-1035]
RFU TPSAB1 /// TPSB2 (11721975_s_at): 19.29 RFU
